In patent US9695155B2, “Herbicidal substituted pyrimidinyloxy benzene compounds” (E. I. DU PONT DE NEMOURS AND COMPANY, priority 2013, dated 2017):

Experiments:
wheat = assay: Test A postemergence; type: in vivo, Triticum aestivum; details: 0 to 100 scale, 0 no effect, 100 complete control
Method in brief: (§1)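 Pre- and postemergence greenhouse screen. Soil: loam + sand. Spray carrier: solvent mixture, non-phytotoxic, with surfactant. Post timing at 1–2 leaves, height 2–10 cm. Readout: visual injury on a 0–100 scale roughly 10 days after application, untreated plants as reference.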

galium = assay: Test C postemergence; type: in vivo, Galium aparine; details: for Plant response rating (0 to 100), Galium: 16 g ai/ha, 0 is no effect, 100 is complete control
Method in brief: (§2)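 Visual ratings on a 0–100 scale (100 = complete control) were made versus untreated controls after 13–15 greenhouse days. Chemicals in a surfactant-containing non-phytotoxic solvent were applied either preemergence to seeds in loam–sand soil or postemergence to 1- to 4-leaf plants 2–18 cm tall.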

pigweed [1] = assay: Test A preemergence; type: in vivo, Amaranthus retroflexus
Method in brief: as §1

ragweed = assay: Test C postemergence; type: in vivo, Ambrosia elatior; details: for Plant response rating (0 to 100), Ragweed: 16 g ai/ha, 0 is no effect, 100 is complete control
Method in brief: as §2

pigweed [2] = assay: Test C postemergence; type: in vivo, Amaranthus retroflexus; details: for Plant response rating (0 to 100), Pigweed: 16 g ai/ha, 0 is no effect, 100 is complete control
Method in brief: as §2

velvetleaf = assay: Test C postemergence; type: in vivo, Abutilon theophrasti; details: for Plant response rating (0 to 100), Velvetleaf: 16 g ai/ha, 0 is no effect, 100 is complete control
Method in brief: as §2

corn = assay: Test A postemergence; type: in vivo, Zea mays
Method in brief: as §1

oilseed rape = assay: Test C postemergence; type: in vivo, Brassica napus; details: for Plant response rating (0 to 100), Oilseed Rape: 16 g ai/ha, 0 is no effect, 100 is complete control
Text: Seeds of plant species selected from blackgrass (Alopecurus myosuroides), Italian ryegrass (Lolium multiflorum), wheat, winter (winter wheat, Triticum aestivum), galium (catchweed bedstraw, Galium aparine), corn (Zea mays), large (Lg) crabgrass (Digitaria sanguinalis), giant foxtail (Setaria faberii), johnsongrass (Sorghum halepense), lambsquarters (Chenopodium album), morningglory (Ipomoea coccinea), yellow nutsedge (Cyperus esculentus), pigweed (Amaranthus retroflexus), ragweed (common ragweed, Ambrosia elatior), soybean (Glycine max), barnyardgrass (Echinochloa crus-galli), oilseed rape (Brassica napus), waterhemp (common waterhemp, Amaranthus rudis), kochia (Kochia scoparia), wild oat (Avena fatua), surinam grass (Brachiaria decumbens), foxtail, green (green foxtail, Setaria viridis), goosegrass (Eleusine indica), bromegrass, downy (downy bromegrass, Bromus tectorum), nightshade (eastern black nightshade, Solanum ptycanthum), cocklebur (common cocklebur, Xanthium strumarium), cupgrass, woolly (woolly cupgrass, Eriochloa villosa), bermudagrass (Cynodon dactylon), sunflower, (common oilseed sunflower, Helianthus annuus), Russian thistle (Salsola kali), and velvetleaf (Abutilon theophrasti) were planted into a blend of loam soil and sand and treated preemergence with test chemicals formulated in a non-phytotoxic solvent mixture which included a surfactant.
At the same time, plants selected from these crop and weed species and also barley, winter (winter barley, Hordeum vulgare), windgrass (Apera spica-venti), chickweed (common chickweed, Stellaria media), deadnettle (henbit deadnettle, Lamium amplexicaule), and canarygrass (littleseed canarygrass, Phalaris minor) were planted in pots containing Redi-Earth® planting medium (Scotts Company, 14111 Scottslawn Road, Marysville, Ohio 43041) comprising spaghnum peat moss, vermiculite, wetting agent and starter nutrients and treated with postemergence applications of test chemicals formulated in the same manner. Plants ranged in height from 2 to 18 cm (1- to 4-leaf stage) for postemergence treatments. Treated plants and controls were maintained in a greenhouse for 13 to 15 days, after which time all species were compared to controls and visually evaluated. Plant response ratings, summarized in Table C, are based on a scale of 0 to 100 where 0 is no effect and 100 is complete control. A dash (-) response means no test result.

[3] = 31 g ai/ha, postemergence, visual rating, scale 0 to 100 (0 no effect, 100 complete control), 13 to 15 days
[4] = 125 g ai/ha, postemergence, visual rating, scale 0 to 100 (0 no effect, 100 complete control)
[5] = Postemergence, 62 g ai/ha, scale 0 to 100 (0 no effect, 100 complete control)
[6] = 125 g ai/ha, 0 to 100 scale where 0 is no effect and 100 is complete control

SMILES	Plant response rating (0 to 100), Galium (galium; postemergence)	Plant response rating, Galium (galium; [4])	Plant response rating, Galium (galium; [5])	Plant response rating (0 to 100), Ragweed (ragweed; postemergence)	Plant response rating, Ragweed (ragweed; [4])	Plant response rating, Ragweed (ragweed; [5])	Plant response rating (0 to 100), Pigweed (pigweed [2]; postemergence)	Plant response rating, Pigweed (pigweed [2]; [4])	Plant response rating, Pigweed (pigweed [2]; [5])	Plant response rating (0 to 100), Velvetleaf (velvetleaf; postemergence)	Plant response rating, Velvetleaf (velvetleaf; [4])	Plant response rating, Velvetleaf (velvetleaf; [5])	Plant response rating (0 to 100), Oilseed Rape (oilseed rape; postemergence)	Plant response rating, Oilseed Rape (oilseed rape; [4])	Plant response rating, Oilseed Rape (oilseed rape; [5])	further results
Fc1cccc(Oc2ncc(Cl)cn2)c1-n1cc(C2CC2)nn1 [Compound 155]	75	100	98	50	85	70	80	98	98	45	85	70	60	80	50	Plant response rating, Wheat (wheat; 1000 g ai/ha): 90; Galium plant response rating (galium; [3]): 95; Pigweed plant response rating (pigweed [1]; 1000 g ai/ha, 0 to 100 scale, 0 no effect, 100 complete control, approx. 10 days): 100; Ragweed plant response rating (ragweed; [3]): 55; Pigweed plant response rating (pigweed [2]; [3]): 75; Velvetleaf plant response rating (velvetleaf; [3]): 75; Plant response rating, Corn (corn; 1000 g ai/ha, 0 to 100 scale, 0 no effect, 100 complete control): 100; Oilseed Rape plant response rating (oilseed rape; [3]): 50
FCc1cccc(Oc2ncc(Br)cn2)c1-n1cc(C(F)(F)F)cn1 [Compound 120]	30	60	30	10	60	25	40	95	85	10	50	35	5	15	5	Plant response rating, Wheat (wheat; 31 g ai/ha): 0; Pigweed plant response rating (0 to 100 scale) (pigweed [1]; 31 g ai/ha): 100; Plant response rating, Pigweed (pigweed [1]; [6]): 100; Plant response rating, Corn (corn; 31 g ai/ha, 0 to 100 scale, 0 no effect, 100 complete control): 10; Plant response rating, Corn (corn; [6]): 50
